This series can be described thus: FUS-BBBO delivery of Evans Blue to the mouse brain under closed-loop feedback control (fluorescence imaging of brain slices). Format: in vivo, Swiss mice. The note with it: for drug delivery area (average): area with fluorescence higher than 10 dB above background of brain tissue; for fluorescence intensity of the delivered Evans Blue, increase relative to the 0.5 dB group: brainstem ROI, 30 μL of 4% Evans Blue i.v. after FUS, 30 min after sonication. The protocol: 25 Swiss mice (8-10 weeks, ˜25 g body weight, female, Charles River Laboratory, Wilmington, MA, USA) were randomly assigned into five groups (n=5 for each group) to evaluate five different TCLs using the disclosed algorithm. Swiss mice (8-10 weeks, ˜25 g body weight, female, Charles River Laboratory, Wilmington, MA, USA) were housed in a room maintained at 22° C. and 55% relative humidity, with a 12-h/12-h light/dark cycle and access to standard laboratory chow and water. […] Four Swiss mice were selected to evaluate an existing closed-loop feedback control algorithm with the TCL defined based on the detection of sub-harmonics. During all experiments, mice were anesthetized with 1.5-2% isoflurane and stabilized using a stereotaxic apparatus (Kopf, Tujunga, CA, USA). A heating pad with a temperature kept at ˜38° C. was used to maintain the mouse's body temperature. Mice were prepared for FUS sonication by removing fur on top of the head with a depilatory cream (Nair, Church & Dwight Co., NJ, USA) and coupled to a water container using ultrasound gel. A catheter was placed into the tail vein for microbubbles and Evans blue injection.
A microbubble contrast agent (Definity, Lantheus Medical Imaging, North Billerica, MA) was diluted using sterile saline to a final concentration of approximately 8×10^8 microbubbles per mL. A bolus of diluted microbubble contrast agent (volume=30 μL) was injected intravenously into each mouse through a tail vein catheter. The injection was performed using a computer-controlled syringe pump (NE-1600; New Era Pump Systems Inc.). Microbubbles infusion was started 15 s before FUS sonication to allow microbubbles to flow through the tail vein catheter and reach the mouse brain. The infusion lasted until the end of sonication at a constant rate of 12.8 μL/min. All mice were treated by FUS with output pressure controlled in real-time using the disclosed PCD-based closed-loop feedback control algorithm. The treatment procedure followed a two-step process. A representative example of sonication sequence and detected cavitation level is illustrated in FIG. 20.
A baseline stable cavitation (SC) level was established for each mouse with dummy FUS sonication after injecting the microbubbles. FUS sonication was performed using a pulse repetition frequency of 2 Hz, a pulse length of 6.7 ms burst (i.e., duty cycle: 1.33%), and a sonication duration of 5 s. The output pressure of FUS was 0.2 MPa (all pressures reported were the peak negative pressures calibrated in water). This pressure was selected because it was the lowest pressure at which the microbubble cavitation signal was higher than the noise level without microbubble injection and lower than the pressures needed to induce BBB disruption. During the sonication by each FUS pulse, acoustic emission from microbubbles was recorded by the PCD transducer and processed by a Fast-Fourier transform (FFT) algorithm. SC level was calculated by summing the magnitude of the spectrum within a ±0.02 MHz bandwidth at the third harmonic (i.e., 4.5 MHz) of the FUS transducer. The third harmonic emission was chosen because it was at the center frequency of the PCD transducer. Ten PCD signals were acquired, and the average of SC levels calculated from these ten signals was used to define the baseline SC level.
After establishing the baseline SC level as described above, the mice were further subjected to FUS sonication using the FUS-BBBO with real-time feedback control disclosed herein. During FUS sonication with microbubbles infusion, cavitation was monitored by PCD in real-time, and a custom closed-loop feedback control algorithm was used to control the SC level to be at different TCLs defined to be 0.5 dB, 1 dB, 2 dB, 3 dB, or 4 dB above the baseline SC level. […]

Consider one compound from US20250040914A1, “SYSTEMS AND METHODS FOR FOCUSED ULTRASOUND-ENABLED LIQUID BIOPSY” (Washington University, priority 2021, published 2025).

Regarding `Cc1cc(-c2ccc(/N=N/c3ccc4c(S(=O)(=O)O)cc(S(=O)(=O)O)c(N)c4c3O)c(C)c2)ccc1/N=N/c1ccc2c(S(=O)(=O)O)cc(S(=O)(=O)O)c(N)c2c1O` [Evans Blue], the “drug delivery area (average)” value reads like this: (TCL 0.5 dB) 9.6 mm^2; (TCL 3 dB) 112.8 mm^2. Further, the “fluorescence intensity of the delivered Evans Blue, increase relative to the 0.5 dB group” value is listed as 2.4 fold (TCL 1 dB above baseline SC level), 5.3 fold (TCL 2 dB above baseline SC level) and 8.2 fold (TCL 3 dB above baseline SC level). Also, the “drug delivery area, increase as TCL was raised from 0.5 dB to 3 dB” value (TCL 3 dB versus 0.5 dB) came to 11.7 fold. Also, the “fluorescence intensity and drug delivery area with respect to the values at a TCL of 3 dB” value (TCL 4 dB) is given as “slightly decreased”.
